TGI and GI50 data for 13 molecules are collected here from PubChem BioAssay (NCI).

Assay in all cases: NCI-60 cell line screen, 48 h
Test [1] relates to MDA-MB-231 breast.
The test system of test [2] is NCI-H522 lung.
In test [3] the test system is LOX IMVI melanoma.
Test [4] deals with PC-3 prostate.
The test system of test [5] is HCT-116 colon.
The subject of test [6] is ACHN renal.
Test [7] deals with UACC-62 melanoma.
For test [8], the system named is OVCAR-8 ovarian.
Test [9] has as its system HT29 colon.
The test system of test [10] is SF-268 CNS.

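Each compound was tested at five concentrations against cells in 96-well plates for 48 hours. GI50: concentration for 50% inhibition of growth. TGI denotes the concentration required for complete inhibition of growth.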 Where only a bound is given, the exact number is not on record here.

As to `CC(C)COP(=O)(OCC(C)C)C(NS(=O)(=O)c1ccccc1)(C(F)(F)F)C(F)(F)F`, the TGI in [1] is 5.56 µM; in test [2], 17.4 µM; in test [3], 13.6 µM; in [4] it was 31.7 µM; in [5] it was 21.7 µM; in test [6] it was 10.2 µM. In addition, the TGI in test [7] is 19.1 µM; in test [8], 25.5 µM; in test [9], 25.4 µM; in test [10] it was 34.7 µM.
On to `Clc1ccc(-c2nn3c(-c4ccncc4)nnc3s2)cc1`, for which the TGI in test [1], in [2], in [3], in test [4], in test [5] and in [6] was above 100 µM in each case. Also, the TGI in test [7], in [8], in [9] and in [10] was above 100 µM throughout.
For the molecule `O=C1c2cc3c(cc2CC1Br)CCC3` (centres undefined), the TGI in [1] is 13.9 µM; in [2], 3 µM; in [3], 2 µM; in test [4] it was 11.7 µM; in test [5], 3.03 µM; in test [6], 13.1 µM. Also, the TGI came to 11.7 µM in test [7], 4.04 µM in [8], 5.78 µM in test [9] and 28.5 µM in test [10].
Take `Oc1ccccc1/C=N/c1nc2cc3sc(/N=C/c4ccccc4O)nc3cc2s1`: the TGI in test [1], in test [2], in test [3], in test [4], in [5] and in [6] was above 100 µM each time. Further, the TGI in test [7], in [8], in test [9] and in test [10] was above 100 µM throughout.
As for `CC12CC(=O)C3C(C(=O)C1)C32C` (centres undefined), the TGI in test [1], in test [2], in [3], in test [4], in test [5] and in test [6] was above 100 µM in each case. Also, the TGI in test [7], in test [8], in [9] and in test [10] was above 100 µM throughout.
Take `O=C(NCCN1CCOCC1)c1ccc2cc(C(=O)N3CC(CCl)c4ccc([N+](=O)[O-])cc43)[nH]c2c1` (centres undefined): the TGI in test [1] is 36.3 µM; in [2], 39.7 µM; in [3] it was above 100 µM; in [4], 48.8 µM; in test [5], above 100 µM; in [6], 45.2 µM. Further, the TGI in test [7] was 43.4 µM; in test [8] it was 35.4 µM; in test [9] it was 24.7 µM; in test [10], 31.3 µM.
Consider `O=c1oc(-c2ccc(O)c(O)c2)cc2cccc(O)c12`, for which the GI50 in [1] is 14.1 µM; in [3] it was 12.5 µM; in [7] it was 16.6 µM; in test [9], 28.1 µM. Besides, the TGI in test [1] is 46.9 µM; in [2], above 50.8 µM; in test [3], 37.2 µM; in [4], 47.3 µM; in [5] it was 23.7 µM; in test [6], above 81.7 µM. The TGI in test [7] is 37.3 µM; in test [8], above 100 µM; in test [9], above 100 µM; in test [10], above 85.2 µM.
For `CCN(CCO)CC1COc2ccccc2O1` (centres undefined), the TGI in [1], in test [2], in test [3], in test [4], in test [5] and in test [6] was above 100 µM each time. Further, the TGI in [7], in [8], in test [9] and in test [10] was above 100 µM each time.
In the case of `NNC(=O)c1ccc[n+](CCc2ccccc2)c1`, the TGI in test [1], in test [2], in test [3], in test [4], in test [5] and in test [6] was above 100 µM in each case. In addition, the TGI in [7], in test [8], in test [9] and in [10] was above 100 µM throughout.
`CC(C)/C(Cl)=N\OC(=O)Nc1ccc(C#N)cc1`: the TGI in test [1] was 28.1 µM; in test [2], 3.21 µM; in test [3] it was 13.2 µM; in test [4] it was 30.1 µM; in [5] it was 17.1 µM; in test [6] it was 19 µM. Moreover, the TGI in test [7] was 31 µM; in test [8], 31 µM; in test [9], 43 µM; in test [10], 36.7 µM.
`Cc1csc(-c2cn(C)c3c2C(=O)C(N)=CC3=O)n1`: the TGI in test [1] was above 100 µM; in test [2] it was above 100 µM; in [3] it was above 100 µM; in test [4], above 100 µM; in [5], above 100 µM; in test [6], above 52.1 µM. Also, the TGI in [7] is 26.3 µM; in [8], above 100 µM; in test [9] it was above 67.1 µM; in test [10], above 100 µM.
Consider `CCN(CC)CCOc1ccc(N2C(=O)c3cc(OC)c(OC)cc3C2=O)cc1`, for which the TGI in test [1], in [2], in [3], in test [4], in test [5] and in test [6] was above 100 µM in each case. The TGI in test [7], in [8], in test [9] and in test [10] was above 100 µM in each case.
Take `CCOC(=N)n1c(=O)n(C2=NCCN2)c2ccccc21`: the TGI in test [1], in test [2], in test [3], in test [4], in [5] and in [6] was above 100 µM in each case. The TGI in test [7], in test [8], in [9] and in test [10] was above 100 µM throughout.
